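Values below derive from 48-hour exposures of cells grown in 96-well plates, with endpoints linearly interpolated between the two concentrations bracketing the appropriate inhibition level. TGI is the concentration that stops growth completely.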
How the values were obtained:
Experiment in all cases: NCI tumour cell line growth inhibition, 48 h
A498 renal = test system: A498 renal
A549 NSCLC = test system: A549 NSCLC
KM12 colon = test system: KM12 colon
M14 melanoma = test system: M14 melanoma
IGROV1 ovarian = test system: IGROV1 ovarian
MDA-MB-435 = test system: MDA-MB-435
NCI/ADR-RES ovarian = test system: NCI/ADR-RES ovarian
OVCAR-4 ovarian = test system: OVCAR-4 ovarian
RPMI-8226 leukemia = test system: RPMI-8226 leukemia
ACHN renal = test system: ACHN renal

c1csc(-c2nnc(C34CC5CC(CC(C5)C3)C4)o2)c1
TGI (A498 renal): 43.9 µM
TGI (A549 NSCLC): > 100 µM
TGI (KM12 colon): > 100 µM
TGI (M14 melanoma): > 100 µM
TGI (IGROV1 ovarian): > 100 µM
TGI (MDA-MB-435): > 100 µM
TGI (NCI/ADR-RES ovarian): 57 µM
TGI (OVCAR-4 ovarian): > 100 µM
TGI (RPMI-8226 leukemia): 77.5 µM
TGI (ACHN renal): > 100 µM

Cc1ccc(C2(c3ccc(C)c(O)c3C)CCN(C)CC2)c(C)c1O
TGI (A498 renal): > 100 µM
TGI (A549 NSCLC): > 100 µM
TGI (KM12 colon): > 100 µM
TGI (M14 melanoma): > 100 µM
TGI (IGROV1 ovarian): > 100 µM
TGI (MDA-MB-435): > 100 µM
TGI (NCI/ADR-RES ovarian): > 100 µM
TGI (OVCAR-4 ovarian): > 100 µM
TGI (RPMI-8226 leukemia): > 100 µM
TGI (ACHN renal): > 100 µM

C=C1[C@H](OCC(C)C)[C@@H](OC(=O)C(C)CC)[C@@H](O)C(C)(C)/C=C/[C@H](C)C(=O)[C@@]2(O)C[C@H](C)[C@H](O)[C@@H]2[C@H]1OC(=O)C(C)CC (some centres undefined)
TGI (A498 renal): 12.2 µM
TGI (A549 NSCLC): > 20 µM
TGI (KM12 colon): > 13.6 µM
TGI (M14 melanoma): > 11.1 µM
TGI (IGROV1 ovarian): > 20 µM
TGI (MDA-MB-435): > 20 µM
TGI (NCI/ADR-RES ovarian): > 20 µM
TGI (OVCAR-4 ovarian): > 20 µM
TGI (RPMI-8226 leukemia): 12 µM
TGI (ACHN renal): > 13 µM

COc1cccc(/C=N/n2c(Cc3ccc(Cl)cc3)n[nH]c2=O)c1
TGI (A498 renal): > 100 µM
TGI (A549 NSCLC): > 100 µM
TGI (KM12 colon): > 100 µM
TGI (M14 melanoma): > 100 µM
TGI (IGROV1 ovarian): > 100 µM
TGI (MDA-MB-435): > 100 µM
TGI (NCI/ADR-RES ovarian): > 88.7 µM
TGI (OVCAR-4 ovarian): > 100 µM
TGI (RPMI-8226 leukemia): > 100 µM
TGI (ACHN renal): 67.3 µM

CCOC(=O)C1=CN(C(=O)c2ccccc2)CCC1Cc1ccccc1 (centres undefined)
TGI (A498 renal): 39.4 µM
TGI (A549 NSCLC): > 100 µM
TGI (KM12 colon): > 100 µM
TGI (M14 melanoma): 37.1 µM
TGI (IGROV1 ovarian): > 100 µM
TGI (MDA-MB-435): 51 µM
TGI (NCI/ADR-RES ovarian): 93 µM
TGI (OVCAR-4 ovarian): > 100 µM
TGI (RPMI-8226 leukemia): 36.6 µM
TGI (ACHN renal): 63.6 µM

O=C1OC(C(O)C(O)C(O)CO)C(O)C1O (centres undefined)
TGI (A498 renal): > 100 µM
TGI (A549 NSCLC): > 100 µM
TGI (KM12 colon): > 100 µM
TGI (M14 melanoma): > 100 µM
TGI (IGROV1 ovarian): > 100 µM
TGI (MDA-MB-435): > 100 µM
TGI (NCI/ADR-RES ovarian): > 100 µM
TGI (OVCAR-4 ovarian): > 100 µM
TGI (RPMI-8226 leukemia): > 100 µM
TGI (ACHN renal): > 100 µM

Cc1[nH]c(=O)[nH]c(=O)c1C(=O)N(CCO)Cc1ccccc1
TGI (A498 renal): > 100 µM
TGI (KM12 colon): > 100 µM
TGI (M14 melanoma): > 100 µM
TGI (IGROV1 ovarian): > 100 µM
TGI (MDA-MB-435): > 100 µM
TGI (OVCAR-4 ovarian): 99.7 µM
TGI (RPMI-8226 leukemia): > 100 µM
TGI (ACHN renal): > 100 µM

C1=C[C@]2(CCC13OCCO3)COc1ccccc12
TGI (A498 renal): > 100 µM
TGI (A549 NSCLC): > 100 µM
TGI (KM12 colon): 75.5 µM
TGI (M14 melanoma): > 100 µM
TGI (MDA-MB-435): > 100 µM
TGI (NCI/ADR-RES ovarian): 96.4 µM
TGI (OVCAR-4 ovarian): > 100 µM
TGI (RPMI-8226 leukemia): > 100 µM
TGI (ACHN renal): > 100 µM

CCCN1C(=O)/C(=C(/O)C(=O)OCC)C(c2ccc(OC)c(OC)c2)C1=O (centres undefined)
TGI (A498 renal): > 100 µM
TGI (A549 NSCLC): > 100 µM
TGI (KM12 colon): > 100 µM
TGI (IGROV1 ovarian): > 100 µM
TGI (NCI/ADR-RES ovarian): > 100 µM
TGI (OVCAR-4 ovarian): > 100 µM
TGI (RPMI-8226 leukemia): > 100 µM

CN(C)/C=N/S(=O)(=O)c1nn2c(C=O)c(-c3cc4ccccc4oc3=O)nc2s1
TGI (A498 renal): 55.3 µM
TGI (A549 NSCLC): > 63.5 µM
TGI (KM12 colon): > 49 µM
TGI (IGROV1 ovarian): 25.1 µM
TGI (MDA-MB-435): 62.4 µM
TGI (NCI/ADR-RES ovarian): > 100 µM
TGI (OVCAR-4 ovarian): 28.3 µM
TGI (RPMI-8226 leukemia): 30.4 µM
TGI (ACHN renal): 5.9 µM

CC(CC(C)(C)[N+](C)(C)C)[N+](C)(C)C (centres undefined)
TGI (A549 NSCLC): > 100 µM
TGI (KM12 colon): > 100 µM
TGI (M14 melanoma): > 100 µM
TGI (IGROV1 ovarian): > 100 µM
TGI (NCI/ADR-RES ovarian): > 100 µM
TGI (OVCAR-4 ovarian): > 100 µM
TGI (RPMI-8226 leukemia): > 100 µM
TGI (ACHN renal): > 100 µM

OCCNc1nc2c(N3CCCC3)nc(N3CCNCC3)nc2nc1NCc1ccccc1
TGI (A549 NSCLC): 31.4 µM
TGI (KM12 colon): 25.5 µM
TGI (M14 melanoma): 29.4 µM
TGI (IGROV1 ovarian): 25.5 µM
TGI (MDA-MB-435): 25.1 µM
TGI (NCI/ADR-RES ovarian): > 100 µM
TGI (OVCAR-4 ovarian): 32.2 µM
TGI (RPMI-8226 leukemia): 38.4 µM
TGI (ACHN renal): 28.9 µM

COc1cc([C@@H]2c3cc4c(cc3[C@@H](Nc3ccc(NC(=O)c5cc(NC(=O)c6cc([N+](=O)[O-])cn6C)cn5C)cc3)[C@H]3COC(=O)[C@H]23)OCO4)cc(OC)c1O
TGI (A498 renal): > 52.9 µM
TGI (A549 NSCLC): > 49.9 µM
TGI (KM12 colon): 61.8 µM
TGI (M14 melanoma): 47.7 µM
TGI (IGROV1 ovarian): > 39 µM
TGI (NCI/ADR-RES ovarian): > 100 µM
TGI (OVCAR-4 ovarian): > 100 µM
TGI (RPMI-8226 leukemia): 0.486 µM
TGI (ACHN renal): 12.1 µM

Cc1ccc(Nc2ccc(Nc3ccc(C)cc3S(=O)(=O)O)c3c2C(=O)c2ccccc2C3=O)c(S(=O)(=O)O)c1
TGI (A498 renal): > 100 µM
TGI (A549 NSCLC): > 100 µM
TGI (KM12 colon): > 100 µM
TGI (M14 melanoma): > 100 µM
TGI (IGROV1 ovarian): > 100 µM
TGI (OVCAR-4 ovarian): > 100 µM
TGI (RPMI-8226 leukemia): > 100 µM
TGI (ACHN renal): > 100 µM

CC(=O)OC1C(O)C(C)OC(OC(=O)C2CCC3C(C2)OC2(CC(OC(=O)/C=C/c4ccccc4)C(C)CO2)C32CO2)C1OC1OC(C)C(O)C(O)C1O (centres undefined)
TGI (A498 renal): 0.315 µM
TGI (A549 NSCLC): 1.3 µM
TGI (KM12 colon): 0.144 µM
TGI (IGROV1 ovarian): 0.131 µM
TGI (NCI/ADR-RES ovarian): 146 µM
TGI (OVCAR-4 ovarian): 0.0706 µM
TGI (RPMI-8226 leukemia): 1.15 µM

CCc1cc2c(oc3c4ccccc4ccc23)c(=O)[nH]1
TGI (A549 NSCLC): > 10 µM
TGI (KM12 colon): > 10 µM
TGI (M14 melanoma): > 10 µM
TGI (IGROV1 ovarian): > 10 µM
TGI (MDA-MB-435): > 10 µM
TGI (OVCAR-4 ovarian): > 10 µM
TGI (ACHN renal): > 10 µM

O=C1C=C(NCCc2cc(Br)c(O)c(Br)c2)C(=O)c2[nH]cnc21
TGI (A549 NSCLC): > 100 µM
TGI (KM12 colon): > 100 µM
TGI (M14 melanoma): 57.7 µM
TGI (IGROV1 ovarian): > 100 µM
TGI (MDA-MB-435): 29.3 µM
TGI (NCI/ADR-RES ovarian): > 100 µM
TGI (OVCAR-4 ovarian): 94.9 µM
TGI (ACHN renal): > 100 µM

O=C(NC(CO)CO)c1ccc2cc(C(=O)N3CC(CCl)c4ccc([N+](=O)[O-])cc43)[nH]c2c1 (centres undefined)
TGI (A549 NSCLC): > 100 µM
TGI (KM12 colon): > 100 µM
TGI (M14 melanoma): > 100 µM
TGI (IGROV1 ovarian): > 100 µM
TGI (MDA-MB-435): > 100 µM
TGI (NCI/ADR-RES ovarian): > 100 µM
TGI (OVCAR-4 ovarian): > 100 µM
TGI (ACHN renal): > 100 µM

CCCC1C(C#N)(C#N)C(C#N)=C(N)C1(C)C(C)=O (centres undefined)
TGI (A498 renal): > 100 µM
TGI (A549 NSCLC): > 100 µM
TGI (KM12 colon): > 100 µM
TGI (M14 melanoma): > 100 µM
TGI (IGROV1 ovarian): > 100 µM
TGI (MDA-MB-435): > 100 µM
TGI (NCI/ADR-RES ovarian): > 100 µM
TGI (RPMI-8226 leukemia): > 100 µM
TGI (ACHN renal): > 100 µM

CCOC(=O)/C=C1/Nc2cc(F)c(F)cc2NC1=O
TGI (A549 NSCLC): > 100 µM
TGI (KM12 colon): > 100 µM
TGI (M14 melanoma): > 100 µM
TGI (MDA-MB-435): > 100 µM
TGI (NCI/ADR-RES ovarian): > 100 µM
TGI (OVCAR-4 ovarian): > 100 µM
TGI (RPMI-8226 leukemia): > 100 µM
TGI (ACHN renal): > 100 µM

Cc1csc2n(C)c(=O)c3ccccc3[n+]12
TGI (A549 NSCLC): > 100 µM
TGI (KM12 colon): > 100 µM
TGI (M14 melanoma): > 100 µM
TGI (IGROV1 ovarian): > 100 µM
TGI (MDA-MB-435): > 100 µM
TGI (NCI/ADR-RES ovarian): > 100 µM
TGI (OVCAR-4 ovarian): > 100 µM
TGI (RPMI-8226 leukemia): > 100 µM
TGI (ACHN renal): > 100 µM

CCCN(CCC)c1c([N+](=O)[O-])cc(C(=O)N(C)C)cc1[N+](=O)[O-]
TGI (A549 NSCLC): > 100 µM
TGI (KM12 colon): > 100 µM
TGI (M14 melanoma): > 100 µM
TGI (IGROV1 ovarian): > 100 µM
TGI (OVCAR-4 ovarian): 29.4 µM
TGI (RPMI-8226 leukemia): > 100 µM
TGI (ACHN renal): 30.7 µM

CCOC(=O)c1ccc(NC(NC(=O)CC)(C(F)(F)F)C(F)(F)F)cc1
TGI (A498 renal): > 100 µM
TGI (A549 NSCLC): > 100 µM
TGI (KM12 colon): > 100 µM
TGI (M14 melanoma): > 100 µM
TGI (IGROV1 ovarian): > 100 µM
TGI (MDA-MB-435): > 100 µM
TGI (NCI/ADR-RES ovarian): > 100 µM
TGI (RPMI-8226 leukemia): > 100 µM
TGI (ACHN renal): > 100 µM
